Patent US20080096830A1, “Anti-Inflammatory Macrolide Conjugates” (priority 2005, published 2008)

Key:
[1] = system: eosinophil number in BAL fluid; assay: Model of lung eosinophilia in mice; type: in vivo, Balb/C mice; settings: OVA-sensitised mice, i.n. or i.p. dosing, compared to the vehicle treated control group
Experimental: Male Balb/C mice with a body weight of 20-25 g were randomly divided into groups, and sensitized by an i.p. injection of ovalbumin (OVA, Sigma) on day zero and day fourteen. On the twentieth day, the mice were subjected to a challenge test by i.n. (intranasal) application of OVA (positive control or test group) or PBS (negative control). 48 hours after i.n. application of OVA, the animals were anaesthetized and the lungs were rinsed with 1 mL of PBS. The cells were separated on a Cytospin 3 cytocentrifuge (Shandon). The cells were stained in Diff-Quick (Dade) and the percentage of eosinophils was determined by differential counting of at least 100 cells. The compounds were administered daily i.n. or i.p. in different doses 2 days before the provocative test and up to the completion of the test. Compounds were administered as suspension either in carboxymethyl cellulose or in lactose solution. Fluticasone and beclomethasone were used as standard anti-inflammatory substances for comparison.

[2] = target: T1, Human Prostaglandin-H Synthase-2 (hPGH-2), COX-2 (Homo sapiens, UniProt P35354); assay: Human prostaglandin-H synthase-2 (hPGH-2) inhibition assay in transfected COS-7 cells (PGE-2); type: cell-based; settings: COS-7 cells transfected with hPGH-2, arachidonic acid 20 μM, PGE-2 readout
T1 construct: expressed in transfected cells; host or cells: COS-7
T1 sequence (P35354 18-604): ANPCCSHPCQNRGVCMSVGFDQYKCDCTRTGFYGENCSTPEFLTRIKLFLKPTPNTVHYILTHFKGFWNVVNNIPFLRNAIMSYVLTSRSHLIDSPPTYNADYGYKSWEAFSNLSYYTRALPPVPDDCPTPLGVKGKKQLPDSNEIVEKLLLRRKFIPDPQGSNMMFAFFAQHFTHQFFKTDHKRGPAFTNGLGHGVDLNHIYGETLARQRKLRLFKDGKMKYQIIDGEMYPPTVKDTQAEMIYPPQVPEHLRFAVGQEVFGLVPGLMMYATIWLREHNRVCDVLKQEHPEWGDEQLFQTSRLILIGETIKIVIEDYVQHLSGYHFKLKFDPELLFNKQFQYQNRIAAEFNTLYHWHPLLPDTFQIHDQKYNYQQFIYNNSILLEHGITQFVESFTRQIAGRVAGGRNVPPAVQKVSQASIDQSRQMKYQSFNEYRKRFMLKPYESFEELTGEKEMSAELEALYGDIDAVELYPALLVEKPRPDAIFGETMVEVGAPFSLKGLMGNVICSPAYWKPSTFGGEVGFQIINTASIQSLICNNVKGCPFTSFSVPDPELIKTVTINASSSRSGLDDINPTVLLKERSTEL
Experimental: The cells were grown in 10% fetal bovine serum (FBS) in DMEM medium (Invitrogen Life Technologies) at 37° C. in an atmosphere with 5% CO2 and 90% moisture. 20 000 cells/well were plated in 96 well plate (Falcon). The cells in a negative control were cultured only in medium (NC), while the secretion of TNF-α in a positive control was stimulated by the addition of 500 pg/mL lipopolysaccharide (LPS, E. coli serotype 0111:B4, Sigma) (PC). The effect of the tested substances on TNF-α secretion was assessed after their addition to cell cultures stimulated with LPS (TS). […] The percentage inhibition of TNF-α production was calculated by the following equation: % inhibition=[1-(TS-NC)/(PC-NC)]×100. IC50 value was defined as the concentration of the substance at which 50% of TNF-α production was inhibited. […] After 30 minutes supernatants were removed and prostoglandin E2 (PGE-2) was measured with a PGE-2 assay kit (Cayman) following the manufacturer's instructions. No production of PGE-2 was detected in negative controls. % inhibition was calculated by the following equation: % inhibition=(1-sample PGE-2 concentration/positive control PGE-2 concentration)*100.

Structure (SMILES): CCC1OC(=O)C(C)C(O)C(C)C(OC2OC(C)CC(N(C)C)C2O)C(C)(O)CC(C)CN(CCCNC(=O)C=Cc2cc3c(s2)-c2cc(C)ccc2Sc2ccccc2-3)C(C)C(O)C1(C)O (centres unmarked) [Compound 21]
- inhibition of relative eosinophil number in BAL fluid [1]: statistically significant inhibition

Structure (SMILES): CCC1OC(=O)C(C)C(OC2CC(C)(OC)C(O)C(C)O2)C(C)C(OC2OC(C)CC(N(C)CCCNC(=O)C=Cc3cc4c(s3)-c3cc(Cl)ccc3Sc3ccccc3-4)C2O)C(C)(O)CC(C)CN(C)C(C)C(O)C1(C)O (centres unmarked) [Compound 15]
- IC50 [2]: < 10 µM
